Reference: PubChem BioAssay AID743349 (Broad Institute, 2014)
Calls of active or inactive are those of the source. No rule for the calls is given here.

These compounds were tested on M. tuberculosis wild type plus biotin, growth inhibition (assay: growth inhibition of wild-type M. tuberculosis, plus biotin, BioA project, dry powder (AID 743349)).
For `CN1c2ccc(-c3ccc(F)cc3)cc2[C@H]2[C@H](CCN2C(=O)Cc2ccccn2)[C@H]1CO`, the IC90 was > 50 µM (inactive).
For `COc1ccccc1NC(=O)N1CC[C@@H]2[C@@H](CO)N(C)c3ccc(-c4ccc(F)cc4)cc3[C@@H]21`, the IC90 was > 50 µM (inactive).
With `COc1cccc(NC(=O)N2CC[C@@H]3[C@@H](CO)N(C)c4ccc(-c5cccc(F)c5)cc4[C@@H]32)c1` the IC90 was > 50 µM (inactive).
In the case of `CN1c2ccc(-c3cccc(F)c3)cc2[C@@H]2[C@@H](CCN2C(=O)c2ccc3c(c2)OCO3)[C@@H]1CO`, the IC90 is reported as > 50 µM (inactive).
With `CN1c2ccc(-c3ccc(F)cc3)cc2[C@H]2[C@H](CCN2C(=O)Cc2cccnc2)[C@H]1CO` the IC90 was > 50 µM (inactive).
`CN1c2ccc(-c3cccc(F)c3)cc2[C@H]2[C@H](CCN2C(=O)Cc2cccnc2)[C@H]1CO` was tested, and the IC90 was > 50 µM (inactive).
For `CN1c2ccc(-c3ccc(F)cc3)cc2[C@H]2[C@H](CCN2C(=O)Nc2ccc(F)cc2)[C@H]1CO`, the IC90 was > 50 µM (inactive).
For `CC(=O)c1ccc(N2CCN(C(=O)c3ccccc3F)CC2)cc1`, the IC90 was > 50 µM (inactive).
In the case of `CN1c2ccc(-c3cccc(F)c3)cc2[C@H]2[C@H](CCN2C(=O)CCCCCCC(=O)O)[C@H]1CO`, the IC90 is reported as > 50 µM (inactive).
With `CC(C)NC(=O)N1CC[C@@H]2[C@@H](CO)N(C)c3ccc(-c4ccc(F)cc4)cc3[C@@H]21` the IC90 was > 50 µM (inactive).
With `COCC(=O)N1CC[C@@H]2[C@@H](CO)N(C)c3ccc(-c4cccc(F)c4)cc3[C@@H]21` the IC90 was > 50 µM (inactive).
For `CN1c2ccc(-c3ccc(F)cc3)cc2[C@H]2[C@H](CCN2C(=O)Nc2cc(F)ccc2F)[C@H]1CO`, the IC90 was > 50 µM (inactive).
In the case of `CN(C)C(=O)c1ccc(N2CCN(C(=O)c3ccc4c(c3)OCO4)CC2)cc1`, the IC90 is reported as > 50 µM (inactive).
With `CN1c2ccc(-c3cccc(F)c3)cc2[C@@H]2[C@@H](CCN2C(=O)c2ccc3c(c2)OCO3)[C@H]1CO` the IC90 was > 50 µM (inactive).
For `CC(=O)c1ccc(N2CCN(C(=O)c3ccc4c(c3)OCO4)[C@H](C)C2)cc1`, the IC90 was > 50 µM (inactive).
In the case of `COc1ccc(NC(=O)N2CC[C@@H]3[C@@H](CO)N(C)c4ccc(-c5ccc(F)cc5)cc4[C@@H]32)cc1`, the IC90 is reported as > 50 µM (inactive).
For `COC(=O)CCCCCCC(=O)N1CC[C@@H]2[C@@H](CO)N(C)c3ccc(-c4cccc(F)c4)cc3[C@@H]21`, the IC90 was > 50 µM (inactive).
With `CN1c2ccc(-c3cccc(F)c3)cc2[C@H]2[C@H](CCN2C(=O)CCCCCCN)[C@H]1CO` the IC90 was > 50 µM (inactive).
In the case of `CCC(=O)N1CC[C@@H]2[C@@H](CO)N(C)c3ccc(-c4ccc(F)cc4)cc3[C@@H]21`, the IC90 is reported as > 50 µM (inactive).
`CC(C)NC(=O)N1CC[C@@H]2[C@@H](CO)N(C)c3ccc(-c4cccc(F)c4)cc3[C@@H]21` was tested, and the IC90 was > 50 µM (inactive).
For `COc1ccccc1C(=O)N1CCN(c2ccc(C(C)=O)cc2)CC1`, the IC90 was > 50 µM (inactive).
In the case of `CCCCCCCC(=O)N1CC[C@@H]2[C@@H](CO)N(C)c3ccc(-c4cccc(F)c4)cc3[C@@H]21`, the IC90 is reported as > 50 µM (inactive).
For `CC(=O)c1ccc(N2CC3(CN(C(=O)c4ccc5c(c4)OCO5)C3)C2)cc1`, the IC90 was > 50 µM (inactive).
`CN1c2ccc(-c3cccc(F)c3)cc2[C@H]2[C@H](CCN2C(=O)c2ccc3c(c2)OCO3)[C@@H]1CO` was tested, and the IC90 was > 50 µM (inactive).
For `CCCNC(=O)N1CC[C@@H]2[C@@H](CO)N(C)c3ccc(-c4ccc(F)cc4)cc3[C@@H]21`, the IC90 was > 50 µM (inactive).
With `CN1c2ccc(-c3cccc(F)c3)cc2[C@H]2[C@H](CCN2C(=O)Nc2ccccc2F)[C@H]1CO` the IC90 was > 50 µM (inactive).
With `CC(=O)c1ccc(NCCNC(=O)c2ccc3c(c2)OCO3)cc1` the IC90 was > 50 µM (inactive).
For `CC(=O)c1ccc(N2CCN(C(=O)c3ccccc3Cl)CC2)cc1`, the IC90 was > 50 µM (inactive).
In the case of `CNS(=O)(=O)c1ccc(N2CCN(C(=O)c3ccc4c(c3)OCO4)CC2)cc1`, the IC90 is reported as > 50 µM (inactive).
In the case of `CC(=O)c1ccc(N2CCN(C(=O)c3ccc4c(c3)OCO4)CC2)cc1`, the IC90 is reported as > 50 µM (inactive).
`CN1c2ccc(-c3cccc(F)c3)cc2[C@H]2[C@H](CCN2C(=O)Cc2ccccc2)[C@H]1CO` was tested, and the IC90 was > 50 µM (inactive).
For `COc1ccc(NC(=O)N2CC[C@@H]3[C@@H](CO)N(C)c4ccc(-c5cccc(F)c5)cc4[C@@H]32)cc1`, the IC90 was > 50 µM (inactive).
For `COc1ccccc1NC(=O)N1CC[C@@H]2[C@@H](CO)N(C)c3ccc(-c4cccc(F)c4)cc3[C@@H]21`, the IC90 was > 50 µM (inactive).
In the case of `CNC(=O)c1ccc(N2CCN(C(=O)c3ccc4c(c3)OCO4)CC2)cc1`, the IC90 is reported as > 50 µM (inactive).
